Patent US12606561B2, “Substituted pyrazolo[1,5-a][1,3,5]triazines as CDK inhibitors” (QURIENT CO., LTD., priority 2018, dated 2026)

Columns and labels:
MV4-11 = test: Cellular MV4-11 viability assay (CellTiter-Glo, 72 hours); type: cell-based; settings: Homo sapiens; MV4-11 cells
Procedure: Human […] cell line, MV4-11_(ATCC, Cat #CRL-9591), NSCLC (Non-small cell lung cancer) cell line H460 (ATCC, Cat #HTB-177), A2780 (ECACC, Cat #93112519) and OVCAR-3(ATCC, Cat #HTB-161) were obtained from ATCC. Cells were grown in RPMI-1640 media (Invitrogen, Cat #22400-089) supplemented with 10% FBS (Invitrogen, Cat #10099141) and 1% penicillin/streptomycin (Invitrogen, Cat #15070063) and cultured at 37° C., 5% CO2 in a humidified chamber. All cell lines were routinely tested for mycoplasma.
To effect of the CDK7 inhibitor to inhibit the growth of target cancer cells, viability assay were conducted a 72 hour time period. Briefly, the candidate cell line was plated in 96 well plate at the following density of cells respectively. 1×10^4 cells/well for MV4-11, 5×10^3 for H460 and OVCAR-3, and 1×10^3 for A2780. After 24 hours, the cells were treated with various concentrations of the compound (ranging from 0.0015 uM to 10 uM). DMSO solvent without compound served as a control and final DMSO concentration lest than 0.1%. After 72 hours of incubation at 37° C., 5% CO2 incubator, cells were analyzed for the viability using the CellTiter-Glo Luminescent Cell Viability Assay (Promega, Cat #G7570). All viability assays were performed in duplicate and Luminescence was read using an Envision (Perkin Elmer, USA). Data was analyzed using XLfit software.

CDK1/Cyclin B = target: T1, CDK1/Cyclin B (Homo sapiens, UniProt P06493); test: Enzymatic assay for CDK1 (LANCE Ultra kinase assay, FRET based); type: biochemical; settings: ATP at Km; read-out: CDK1 enzymatic activity IC50
T1 construct: purchased Invitrogen PR4768C
Summary of the method: (§1)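 Kinase activity of each purified CDK/cyclin complex was followed in a FRET format where a Europium anti-phospho-antibody recognises phosphorylated ULight-labeled peptide. ATP was held at its Km.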

A2780 = A2780 viability assay (CellTiter-Glo, 72 hours); type: cell-based; settings: Homo sapiens; A2780 cells
Summary of the method: (§2)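 Each line was plated at its own density (1×10^4, 5×10^3 and 1×10^3 cells/well for MV4-11, OVCAR-3 and A2780 respectively) in RPMI-1640 with 10% FBS. Treatment with compound, 0.0015 uM to 10 uM and DMSO under 0.1%, lasted 72 h. Surviving cells were quantified by CellTiter-Glo.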

OVCAR-3 = OVCAR-3 viability assay (CellTiter-Glo, 72 hours); type: cell-based; settings: Homo sapiens; OVCAR-3 cells
Summary of the method: as §2

CDK2/Cyclin A = target: T2, CDK2/Cyclin A (Homo sapiens, UniProt P24941); test: Enzymatic assay for CDK2 (LANCE Ultra kinase assay, FRET based); type: biochemical; settings: ATP at Km
T2 construct: purchased Invitrogen PV6290
Summary of the method: (§3)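 Inhibition was measured at ATP Km with 68 nM ULight-MBP peptide and CDK2/Cyclin A ([…]) or CDK5/p25 ([…]), using 8-dose 4-fold compound dilutions from DMSO. Kinase reaction ran 60 min at 23° C, then Eu anti-phospho-MBP plus EDTA were added for another 60 min before the fluorescence read.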

CDK7/Cyclin H/MNAT1 = target: T3, CDK7/Cyclin H/MNAT1 (Homo sapiens, UniProt P50613); test: Enzymatic assay for CDK7 (LANCE Ultra kinase assay, FRET based); type: biochemical; settings: for IC50: ATP at Km
T3 construct: purchased Invitrogen PR6749B
Summary of the method: as §1

CDK5/p25 = target: T4, CDK5/p25 (Homo sapiens, UniProt Q00535); test: Enzymatic assay for CDK5 (LANCE Ultra kinase assay, FRET based); type: biochemical; settings: ATP at Km
T4 construct: purchased Invitrogen PR8543B
Summary of the method: as §3

T3 sequence (P50613 whole entry): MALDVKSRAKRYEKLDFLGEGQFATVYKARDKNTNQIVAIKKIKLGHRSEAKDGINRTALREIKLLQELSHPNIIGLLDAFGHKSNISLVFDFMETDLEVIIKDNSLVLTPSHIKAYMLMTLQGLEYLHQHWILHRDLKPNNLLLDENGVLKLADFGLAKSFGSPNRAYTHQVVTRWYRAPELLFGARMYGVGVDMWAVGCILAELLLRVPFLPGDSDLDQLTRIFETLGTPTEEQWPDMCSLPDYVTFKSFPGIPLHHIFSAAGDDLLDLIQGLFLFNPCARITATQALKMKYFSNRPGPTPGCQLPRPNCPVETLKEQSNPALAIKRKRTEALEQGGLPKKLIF
T3 sequence (P51946 whole entry partner): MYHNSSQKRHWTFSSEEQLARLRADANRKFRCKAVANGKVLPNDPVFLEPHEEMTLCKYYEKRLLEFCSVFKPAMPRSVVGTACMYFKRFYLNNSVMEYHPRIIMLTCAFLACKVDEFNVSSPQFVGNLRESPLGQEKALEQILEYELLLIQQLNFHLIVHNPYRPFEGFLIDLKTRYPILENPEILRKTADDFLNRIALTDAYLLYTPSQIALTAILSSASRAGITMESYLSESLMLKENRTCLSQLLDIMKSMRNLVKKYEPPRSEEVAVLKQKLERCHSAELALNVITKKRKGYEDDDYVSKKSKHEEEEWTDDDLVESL
T3 sequence (P51948 whole entry partner): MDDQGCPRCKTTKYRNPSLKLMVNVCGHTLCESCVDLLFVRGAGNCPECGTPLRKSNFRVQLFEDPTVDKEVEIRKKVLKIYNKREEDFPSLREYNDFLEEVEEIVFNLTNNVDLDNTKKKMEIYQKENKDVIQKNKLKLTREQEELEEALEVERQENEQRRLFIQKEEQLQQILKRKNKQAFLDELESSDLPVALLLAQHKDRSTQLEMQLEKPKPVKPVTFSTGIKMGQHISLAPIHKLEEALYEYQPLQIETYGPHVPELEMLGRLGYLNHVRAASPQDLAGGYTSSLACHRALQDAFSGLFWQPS
T4 sequence (Q00535 whole entry): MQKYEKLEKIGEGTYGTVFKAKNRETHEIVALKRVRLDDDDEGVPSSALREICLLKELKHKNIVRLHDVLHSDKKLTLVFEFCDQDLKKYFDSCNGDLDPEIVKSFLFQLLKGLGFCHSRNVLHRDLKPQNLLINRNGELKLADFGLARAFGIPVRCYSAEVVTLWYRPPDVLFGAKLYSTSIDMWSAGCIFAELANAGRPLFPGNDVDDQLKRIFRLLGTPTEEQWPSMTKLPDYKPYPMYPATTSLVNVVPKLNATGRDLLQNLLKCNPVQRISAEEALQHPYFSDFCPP
T4 sequence (Q15078 99-307 partner limits assumed): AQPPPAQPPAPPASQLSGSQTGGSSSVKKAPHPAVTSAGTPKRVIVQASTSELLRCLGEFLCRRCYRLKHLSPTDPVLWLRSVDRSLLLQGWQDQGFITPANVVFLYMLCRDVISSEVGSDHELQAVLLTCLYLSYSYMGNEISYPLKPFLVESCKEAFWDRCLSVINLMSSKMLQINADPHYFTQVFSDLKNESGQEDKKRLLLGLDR
T1 sequence (P06493 whole entry): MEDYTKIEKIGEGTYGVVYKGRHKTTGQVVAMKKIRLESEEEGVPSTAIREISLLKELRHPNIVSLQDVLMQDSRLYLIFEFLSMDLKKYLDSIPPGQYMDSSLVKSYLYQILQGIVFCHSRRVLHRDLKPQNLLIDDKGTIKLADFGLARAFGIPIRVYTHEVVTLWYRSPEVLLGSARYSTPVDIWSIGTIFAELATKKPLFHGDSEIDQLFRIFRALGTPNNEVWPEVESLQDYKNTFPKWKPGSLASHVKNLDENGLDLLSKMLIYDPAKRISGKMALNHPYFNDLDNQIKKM
T1 sequence (P14635 whole entry partner): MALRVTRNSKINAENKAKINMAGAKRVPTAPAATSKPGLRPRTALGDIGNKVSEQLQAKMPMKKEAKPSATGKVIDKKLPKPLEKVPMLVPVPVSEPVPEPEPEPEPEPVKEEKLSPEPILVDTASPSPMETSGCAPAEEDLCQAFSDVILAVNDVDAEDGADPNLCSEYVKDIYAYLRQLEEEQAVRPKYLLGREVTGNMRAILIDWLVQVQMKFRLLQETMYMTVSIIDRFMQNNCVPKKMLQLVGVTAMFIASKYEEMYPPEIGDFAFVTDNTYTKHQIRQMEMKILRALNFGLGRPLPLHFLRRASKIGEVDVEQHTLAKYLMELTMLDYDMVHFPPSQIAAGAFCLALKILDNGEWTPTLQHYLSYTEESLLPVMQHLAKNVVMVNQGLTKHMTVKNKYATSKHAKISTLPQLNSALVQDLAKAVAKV

IC50 (MV4-11) [nM]	IC50 (CDK1/Cyclin B) [nM]	IC50 (A2780) [nM]	IC50 (OVCAR-3) [nM]	IC50 (CDK2/Cyclin A) [nM]	IC50 (CDK7/Cyclin H/MNAT1) [nM]	CDK1/CDK7: Selectivity of CDK7 inhibition over CDK1 inhibition (CDK7/Cyclin H/MNAT1)	CDK2/CDK7: Selectivity of CDK7 inhibition over CDK2 inhibition (CDK7/Cyclin H/MNAT1)	CDK5/CDK7: Selectivity of CDK7 inhibition over CDK5 inhibition (CDK7/Cyclin H/MNAT1)	IC50 (CDK5/p25) [nM]	Structure (SMILES)
< 1000	> 1000	< 1000	< 1000	> 1000	< 100	B (B indicates 50 < [fold] ≤ 500)	B (B indicates 50 < [fold] ≤ 500)	B (B indicates 50 < [fold] ≤ 500)	> 1000	C/C=C/C(=O)Nc1ccc2c(-c3ccccc3CNc3nc(NCC4CNCCO4)nc4c(C(C)C)cnn34)nccc2c1 (racemic) [Compound 69]
< 1000	> 1000	< 1000	< 1000	> 1000	100 to 1000	B (B indicates 50 < [fold] ≤ 500)	B (B indicates 50 < [fold] ≤ 500)	B (B indicates 50 < [fold] ≤ 500)	> 1000	CC(C)c1cnn2c(NCc3ccccc3-c3nccc4cc(NC(=O)/C=C/CN(C)C)ccc34)nc(NCCCO)nc12 [Compound 28]
< 1000	> 1000	< 1000	< 1000	> 1000	100 to 1000	B (B indicates 50 < [fold] ≤ 500)	B (B indicates 50 < [fold] ≤ 500)	B (B indicates 50 < [fold] ≤ 500)	> 1000	CC(C)c1cnn2c(NCc3ccccc3-c3nccc4cc(NC(=O)/C=C/CN(C)C)ccc34)nc(N3CCC(CO)CC3)nc12 [Compound 29]
< 1000	> 1000	< 1000	< 1000	> 1000	< 100	A (A indicates [fold] > 500)	A (A indicates [fold] > 500)	A (A indicates [fold] > 500)	> 1000	CC(C)c1cnn2c(NCc3ccccc3-c3nccc4cc(NC(=O)/C=C/CN(C)C)ccc34)nc(N3CCC(O)CC3)nc12 [Compound 31]
< 1000	> 1000	< 1000	< 1000	> 1000	< 100	A (A indicates [fold] > 500)	A (A indicates [fold] > 500)	A (A indicates [fold] > 500)	> 1000	CC(C)c1cnn2c(NCc3ccccc3-c3nccc4cc(NC(=O)/C=C/CN(C)C)ccc34)nc(N[C@H]3CC[C@H](O)C3)nc12 [Compound 32]
< 1000	> 1000	< 1000	< 1000	> 1000	100 to 1000	B (B indicates 50 < [fold] ≤ 500)	B (B indicates 50 < [fold] ≤ 500)	B (B indicates 50 < [fold] ≤ 500)	> 1000	CC(C)c1cnn2c(NCc3ccccc3-c3nccc4cc(NC(=O)/C=C/CN(C)C)ccc34)nc(NC[C@H]3CC[C@H](O)CC3)nc12 [Compound 33]
< 1000	> 1000	< 1000	< 1000	> 1000	< 100	A (A indicates [fold] > 500)	A (A indicates [fold] > 500)	A (A indicates [fold] > 500)	> 1000	CNC1CCN(c2nc(NCc3ccccc3-c3nccc4cc(NC(=O)/C=C/CN(C)C)ccc34)n3ncc(C(C)C)c3n2)CC1 [Compound 34]
< 1000	> 1000	< 1000	< 1000	> 1000	< 100	B (B indicates 50 < [fold] ≤ 500)	B (B indicates 50 < [fold] ≤ 500)	B (B indicates 50 < [fold] ≤ 500)	> 1000	CC(C)c1cnn2c(NCc3ccccc3-c3nccc4cc(NC(=O)/C=C/CN(C)C)ccc34)nc(NCCC(C)(C)O)nc12 [Compound 35]
< 1000	> 1000	< 1000	< 1000	> 1000	< 100	A (A indicates [fold] > 500)	A (A indicates [fold] > 500)	A (A indicates [fold] > 500)	> 1000	CC(C)c1cnn2c(NCc3ccccc3-c3nccc4cc(NC(=O)/C=C/CN(C)C)ccc34)nc(NC3CCC(O)CC3)nc12 (stereo not shown) [Compound 36]
< 1000	> 1000	< 1000	< 1000	> 1000	< 100	A (A indicates [fold] > 500)	A (A indicates [fold] > 500)	B (B indicates 50 < [fold] ≤ 500)	> 1000	CC(C)c1cnn2c(NCc3ccccc3-c3nccc4cc(NC(=O)/C=C/CN(C)C)ccc34)nc(N3CCC(N(C)C)CC3)nc12 [Compound 39]
< 1000	> 1000	< 1000	< 1000	> 1000	< 100	A (A indicates [fold] > 500)	A (A indicates [fold] > 500)	B (B indicates 50 < [fold] ≤ 500)	> 1000	CC(C)=CC(=O)Nc1ccc2c(-c3ccccc3CNc3nc(N4CCC(N)CC4)nc4c(C(C)C)cnn34)nccc2c1 [Compound 40]
< 1000	> 1000	< 1000	< 1000	> 1000	< 100	B (B indicates 50 < [fold] ≤ 500)	B (B indicates 50 < [fold] ≤ 500)	B (B indicates 50 < [fold] ≤ 500)	> 1000	CC(C)c1cnn2c(NCc3ccccc3-c3nccc4cc(NC(=O)/C=C/CN(C)C)ccc34)nc(-n3ccc(CO)n3)nc12 [Compound 41]
< 1000	> 1000	< 1000	< 1000	> 1000	100 to 1000	B (B indicates 50 < [fold] ≤ 500)	B (B indicates 50 < [fold] ≤ 500)	B (B indicates 50 < [fold] ≤ 500)	> 1000	CC(C)c1cnn2c(NCc3ccccc3-c3nccc4cc(NC(=O)/C=C/CN(C)C)ccc34)nc(N3CCOCC3)nc12 [Compound 42]
